Measured values from patent publication US10407440B2, “Therapeutic agent for motor disorders” (KYOWA HAKKO KIRIN CO., LTD., priority 2009, dated 2019).

Legend:
[1] = biological target: T1, human adenosine A2A receptor (Homo sapiens, UniProt P29274); assay: Adenosine A2A receptor binding test (3H-CGS21680 binding); conditions: compound at 100 nmol/L; Table 2, measured by Ricerca Biosciences, LLC; read-out: Inhibitory rate for human adenosine A2A receptor binding (3H-CGS21680 binding)
T1 construct: host or cells: HEK-293 cells (membranes)
Source text: Specifically, for example, human recombinant receptors are expressed in HEK-293 cells.
The inhibitory rate can be calculated by the following equation.

[2] = biological target: T2, human adenosine A1 receptor (Homo sapiens, UniProt P30542); assay: Adenosine A1 receptor binding test (3H-DPCPX binding); conditions: compound at 100 nmol/L; Table 2, measured by Ricerca Biosciences, LLC; read-out: Inhibitory rate for human adenosine A1 receptor binding (3H-DPCPX binding)
T2 construct: host or cells: CHO cells (membranes)
T2 sequence (P30542 1-326): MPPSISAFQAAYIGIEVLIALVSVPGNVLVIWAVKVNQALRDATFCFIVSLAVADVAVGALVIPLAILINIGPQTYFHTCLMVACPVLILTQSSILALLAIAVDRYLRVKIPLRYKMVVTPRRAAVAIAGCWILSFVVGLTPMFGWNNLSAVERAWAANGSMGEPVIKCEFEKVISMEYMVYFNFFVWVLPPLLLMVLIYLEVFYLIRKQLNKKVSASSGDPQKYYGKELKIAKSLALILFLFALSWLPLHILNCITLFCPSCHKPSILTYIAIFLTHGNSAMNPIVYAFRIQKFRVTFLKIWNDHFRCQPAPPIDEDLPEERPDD
Source text: Specifically, for example, human A1 receptor-expressing CHO cell membranes are used, and, as the labeled compound, for example, tritium-labeled DPCPX (1,3-dipropyl-8-cyclopentylxanthine) is used. The amount of non-specific binding can be determined by measuring the ^3H-DPCPX bound radioactivity in the presence of, for example, 100 μmol/L of R(−)-PIA((−)-N^6-2-phenylisopropyl adenosine).

T1 sequence (P29274 whole entry): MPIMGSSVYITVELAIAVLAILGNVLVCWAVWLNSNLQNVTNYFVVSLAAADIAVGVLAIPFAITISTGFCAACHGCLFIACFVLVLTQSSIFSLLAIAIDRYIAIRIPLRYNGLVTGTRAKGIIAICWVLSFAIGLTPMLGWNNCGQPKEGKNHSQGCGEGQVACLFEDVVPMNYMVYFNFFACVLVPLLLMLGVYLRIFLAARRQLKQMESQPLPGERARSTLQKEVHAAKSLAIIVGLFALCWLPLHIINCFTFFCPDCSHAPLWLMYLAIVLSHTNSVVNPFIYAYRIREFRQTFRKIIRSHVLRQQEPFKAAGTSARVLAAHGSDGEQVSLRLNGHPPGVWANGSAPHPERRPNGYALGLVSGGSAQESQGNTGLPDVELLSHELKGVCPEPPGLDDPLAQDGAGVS

Structure (SMILES) | inhibition at 0.1 µM [1] | inhibition at 0.1 µM [2]
CCOCc1cc(C(=O)Nc2nc(-c3ccco3)c(C(=O)C3CCOCC3)s2)ccn1 [(IK), 2-Ethoxymethyl-N-[4-(2-furyl)-5-(tetrahydropyran-4-carbonyl)thiazol-2-yl]pyridine-4-carboxamide] | 92% | 24%
COc1ccc(C(=O)Nc2nc(-c3ccco3)c(C(=O)C3CCOCC3)s2)cn1 [(IO), N-[4-(2-Furyl)-5-(tetrahydropyran-4-carbonyl)thiazol-2-yl]-6-methoxypyridine-3-carboxamide] | 97% | 56%
O=C(Cc1ccccn1)Nc1nc(-c2ccco2)c(C(=O)C2CCOCC2)s1 [(IN), N-[4-(2-Furyl)-5-(tetrahydropyran-4-carbonyl)thiazol-2-yl]-2-(pyridin-2-yl)acetamide] | 93% | 21%
O=C(Cc1cccnc1)Nc1nc(-c2ccco2)c(C(=O)C2CCOCC2)s1 [(IF), N-[4-(2-Furyl)-5-(tetrahydropyran-4-carbonyl)thiazol-2-yl]-2-(pyridin-3-yl)acetamide] | 107% | 50%
O=C(Nc1nc(-c2ccco2)c(C(=O)C2CCOCC2)s1)c1ccnc(CN2CCOCC2)c1 [(II), N-[4-(2-Furyl)-5-(tetrahydropyran-4-carbonyl)thiazol-2-yl]-2-(morpholin-4-ylmethyl)pyridine-4-carboxamide] | 85% | 19%
CC(=O)c1cc(C(=O)Nc2nc(-c3ccco3)c(C(=O)C3CCOCC3)s2)cnc1C [(IY), 5-Acetyl-N-[4-(2-furyl)-5-(tetrahydropyran-4-carbonyl)thiazol-2-yl]-6-methylpyridine-3-carboxamide] | 97% | 8%
O=C(Nc1nc(-c2ccco2)c(C(=O)C2CCOCC2)s1)c1cnc2c(c1)CSCC2 [(IX), N-[4-(2-Furyl)-5-(tetrahydropyran-4-carbonyl)thiazol-2-yl]-7,8-dihydro-5H-thiopyrano[4,3-b]pyridine-3-carboxamide] | 101% | 18%
O=C(Nc1nc(-c2ccco2)c(C(=O)C2CCOCC2)s1)c1cnc2c(c1)CCC2 [(IT), N-[4-(2-Furyl)-5-(tetrahydropyran-4-carbonyl)thiazol-2-yl]-6,7-dihydro-5H-cyclopenta[b]pyridine-3-carboxamide] | 91% | 37%
CCc1cncc(C(=O)Nc2nc(-c3ccco3)c(C(=O)C3CCOCC3)s2)c1 [(IR), 5-Ethyl-N-[4-(2-furyl)-5-(tetrahydropyran-4-carbonyl)thiazol-2-yl]pyridine-3-carboxamide] | 107% | 30%
CCc1ccc(C(=O)Nc2nc(-c3ccco3)c(C(=O)C3CCOCC3)s2)cn1 [(IV), 6-Ethyl-N-[4-(2-furyl)-5-(tetrahydropyran-4-carbonyl)thiazol-2-yl]pyridine-3-carboxamide] | 98% | 23%
O=C(Nc1nc(-c2ccco2)c(C(=O)C2CCOCC2)s1)c1ccc[nH]1 [(IG), N-[4-(2-Furyl)-5-(tetrahydropyran-4-carbonyl)thiazol-2-yl]-1H-pyrrole-2-carboxamide] | 102% | 91%
CCc1cncc(C(=O)Nc2nc(-c3ccoc3)c(C(=O)C3CCOCC3)s2)c1 [(IZ), 5-Ethyl-N-[4-(3-furyl)-5-(tetrahydropyran-4-carbonyl)thiazol-2-yl]pyridine-3-carboxamide] | 102% | 21%
O=C(Nc1nc(-c2ccco2)c(C(=O)C2CCOCC2)s1)c1cnc2ccccc2c1 [(IP), N-[4-(2-Furyl)-5-(tetrahydropyran-4-carbonyl)thiazol-2-yl]quinoline-3-carboxamide] | 98% | 18%
O=C(Nc1nc(-c2ccco2)c(C(=O)C2CCOCC2)s1)c1cnc2c(c1)COCC2 [(IS), N-[4-(2-Furyl)-5-(tetrahydropyran-4-carbonyl)thiazol-2-yl]-7,8-dihydro-5H-pyrano[4,3-b]pyridine-3-carboxamide] | 90% | 10%
Cc1cc(C(=O)Nc2nc(-c3ccco3)c(C(=O)C3CCOCC3)s2)cnc1C [(IQ), N-[4-(2-Furyl)-5-(tetrahydropyran-4-carbonyl)thiazol-2-yl]-5,6-dimethylpyridine-3-carboxamide] | 100% | 18%
O=C(Nc1nc(-c2ccco2)c(C(=O)C2CCOCC2)s1)c1cnc2occc2c1 [(IM), N-[4-(2-Furyl)-5-(tetrahydropyran-4-carbonyl)thiazol-2-yl]furo[2,3-b]pyridine-5-carboxamide] | 98% | 47%
CCCc1ccc(C(=O)Nc2nc(-c3ccco3)c(C(=O)C3CCOCC3)s2)cn1 [(IW), N-[4-(2-Furyl)-5-(tetrahydropyran-4-carbonyl)thiazol-2-yl]-6-propylpyridine-3-carboxamide] | 98% | 23%
O=C(Nc1nc(-c2ccco2)c(C(=O)C2CCOCC2)s1)c1cccc2[nH]ccc12 [(IH), N-[4-(2-Furyl)-5-(tetrahydropyran-4-carbonyl)thiazol-2-yl]-1H-indole-4-carboxamide] | 98% | 67%
O=C(Nc1nc(-c2ccco2)c(C(=O)C2CCOCC2)s1)c1cc2ccccc2[nH]1 [(IU), N-[4-(2-Furyl)-5-(tetrahydropyran-4-carbonyl)thiazol-2-yl]-1H-indole-2-carboxamide] | 110% | 36%
O=C(Nc1nc(-c2ccoc2)c(C(=O)C2CCOCC2)s1)c1cnc2c(c1)CCC2 [(IAA), N-[4-(3-Furyl)-5-(tetrahydropyran-4-carbonyl)thiazol-2-yl]-6,7-dihydro-5H-cyclopenta[b]pyridine-3-carboxamide] | 98% | 9%
C=Cc1ccc(C(=O)Nc2nc(-c3ccco3)c(C(=O)C3CCOCC3)s2)cn1 [(IE), N-[4-(2-Furyl)-5-(tetrahydropyran-4-carbonyl)thiazol-2-yl]-6-vinylpyridine-3-carboxamide] | 93% | 33%
CC(C)OCc1cc(C(=O)Nc2nc(-c3ccco3)c(C(=O)C3CCOCC3)s2)ccn1 [(IL), N-[4-(2-Furyl)-5-(tetrahydropyran-4-carbonyl)thiazol-2-yl]-2-isopropoxymethylpyridine-4-carboxamide] | 85% | 20%
COCc1cc(C(=O)Nc2nc(-c3ccco3)c(C(=O)C3CCOCC3)s2)ccn1 [(IJ), N-[4-(2-Furyl)-5-(tetrahydropyran-4-carbonyl)thiazol-2-yl]-2-methoxymethylpyridine-4-carboxamide] | 93% | 21%
